Experimental data: patent publication US20090191185A1, “Reducing Cancer Cell Invasion Using an Inhibitor of Toll Like Receptor Signaling” (THE UAB RESEARCH FOUNDATION, priority 2006, published 2009)
“Also recorded” adds a separate entry of the source. Oligonucleotides are written 5' to 3', each unit as a sugar letter and its base; * is a phosphorothioate linkage, no mark a phosphodiester; rarer units and linkages stand in square brackets, end groups in braces. Plain capitals give the bases only. d = 2'-deoxy (DNA)

How the values were obtained:
Type in all cases: cell-based, human
[1] = tested on: MCF-10A mammary epithelial cells; assay: Matrigel invasion assay, MCF-10A cells; conditions: 1 and 10 μM
[2] = tested on: MCF-7 breast cancer cells; assay: Matrigel invasion assay, MCF-7 cells; conditions: 1 and 10 μM
Description: (§1) In vitro invasion assays. For the Matrigel-invasion assay the cells were plated at the density of 5×10^4 (MDA-MB-231, U373, D54MG), 15×10^4 (T47-D) or 30×10^4 (MCF-7) cells per upper well in 750 μl of normal culture medium (Virtanen et al., Cancer Res. 62:2708-14 (2002)), indicated concentrations of the various CpG-ODNs, non-CpG-ODNs or vehicle were added to both the upper and lower wells. When indicated, aprotinin (2 μM), GM6001 (2 μM), MMP-8 inhibitor 1 (8 nM) or the same volume of the corresponding control compound, control IgG or neutralizing anti-MMP-13 antibody (R& D Systems, Minneapolis, Minn., both at 12 μg/ml) or chloroquine (10 μM) were also added to both upper and lower wells. The cells were allowed to invade for 18 h, after which the inserts were removed and stained with the Hema 3 Stain set (Fisher Diagnostics, Middletown, Pa.), according to the manufacturer's recommendation. The number of invaded cells was counted from 5 pre-selected microscopic fields using a 40× objective. […] Tumor cell invasion (depth and number of cells below the surface) was assessed by light microscopy in a minimum of four randomly selected sections for each experimental sample. The number of invading cells per high power field (400×) were counted and averaged. The depth of invasion was also measured in four randomly selected areas for each sample using photomicrograph of each sample.

[3] = tested on: MDA-MB-231, T47-D or MCF-7 cells; assay: MTS cell viability assay, breast cancer cells
Description: Cell viability assays. MDA-MB-231, T47-D or MCF-7 cells were plated at the density of 1000 cells/well in 96-well plates in normal culture medium, and cultured for the indicated periods of time with 10 μM type C CpG-ODN or vehicle. Cell viability was assessed after MTS was added for the final 2 hours of the experimental cultures as recommended by the manufacturer (CellTiter 96 AQueous Non-Radioactive Cell Proliferation Assay, Promega, Madison, Wis.).

[4] = tested on: MMP-activity in MDA-MB-231 cells; assay: gelatin zymogram of MDA-MB-231 supernatants; conditions: 2 μM added to final incubation of gels
Description: Zymograms. The zymograms were performed as previously described (Suarex-Cuervo et al., Clin. Exp. Metastasis 21:525-33 (2004)). In this assay, the gelatinolytic bands represent the following MMPs: 120 kDa band represents MMP-9 and neutrophil gelatinase associated lipocalin complex, 90 kDa band represents pro-MMP-9 and the 72 kDa band represents proMMP-2. Briefly, MDA-MB-231 cells were plated on 12-well plates and allowed to reach confluency. The cells were then rinsed with PBS and serum-free medium, with the indicated concentrations of type C CpG-ODNs, type C non-CpG-ODNs or vehicle was applied for 24 h.

MDA-MB-231 cells = assay: Matrigel invasion assay, MDA-MB-231 cells
Description: as §1, with “objective. To assess invasion in a three-dimensional type I collagen gel, acid solubilized type I collagen (0.9 ml) was added to the Costar Transwell dishes (Corning, Inc., Corning, N.Y.) and gelled over 45 min at 37° C. The collagen was prepared using rat-tail type 1 collagen dissolved in 0.2% acetic acid at 3.2 mg/ml and gelled by neutralizing the acid with 0.3 N NaOH containing phenol red as a pH indicator. A final concentration of 3.0 mg/ml was obtained. Media, containing vehicle or 10 μM type C CpG-ODN was men added to the upper and lower chambers prior to the addition of 5×10^5 cells to the surface of the collagen gel in the presence of serum-containing medium.” for “objective.”

PC-3 cells = assay: Matrigel invasion assay, PC-3 cells
Description: In vitro invasion assays. For the Matrigel-invasion assay the cells were plated at the density of 5×10^4 (PC-3, Du-145, LnCaP and MDA PCa 2b) cells per upper well in 500 μl of normal culture medium, Indicated concentrations of the various CpG-ODNs, bacterial DNA (E. Coli, Sigma, St. Louis, Mo.) or vehicle were added to both the upper and lower wells. When indicated, p38- or JNK-inhibitor (both at final concentration of 10^−5 M), control IgG or neutralizing anti-MMP-13 antibody (R&. D Systems, Minneapolis, Minn., both at 12 μg/ml) or chloroquine (10 μM) were also added to both upper and lower wells. […] The number of invaded cells were counted from 5 pre-selected microscopic fields using a 40× objective.

NFκB reporter gene = NFκB reporter gene assay in transfected MDA-MB-231 pools
Description: MDA-MB-231 cells were stably transfected with pIRES-EGFP empty vector (EV) or with pIRES-EGFP-TRAF6DN-Flag. Stable pools were Flow-sorted for the expression of EGFP for 3 cycles. […] The same blots were stripped and re-blotted with antibodies against Flag, GFP and actin. For FIG. 12B, the various cells were transiently transfected with a NFκB reporter gene and treated with CpG-ODN or TNF-α. Reporter gene activation was calculated as fold-increase vs. vehicle-treatment. Mean±SD, n=6. * p<0.05, *** p<0.001 pIRES-EV vs. pIRES-EGFP-TRAF6DN. For FIG. 12C, the pIRES-EGFP and pIRES-EGFP-TRAF6DN cells were plated on Matrigel-assays and treated with vehicle or with 2 or 10 μM Non-CpG-ODN or CpG-ODN, The number of invaded cells were counted microscopically 22 h later. Data are expressed as fold-increase in treatment-induced invasion, mean±sd, n±3-6. * p<0.05, ** p<0.01 pIRES-EGFP vs. pIRES-EGFP-TRAF6DN.
Stable transfection of TRAF6 into MDA-MB-231 breast cancer cells. The cDNA encoding for dominant negative TRAF6 has been described previously (Yeo et al., (2003) J. Biol. Chem. 278:22563-22573). The pIRES-EGF-DNTRAF6-Flag and pIRES-EGF were stably transfected into the MDA-MB-231 cells. The established stable pools were submitted to three cycles of Flow-sorting for highest emission of GFP, to enrich the populations of transfected cells. […]

## type C non-CpG-ODN: 5′-tgc tgc tgc tig caa gca get tga t-3′ (SEQ ID NO:6), non-CpG-ODN control (DNA dT*dG*dC*dT*dG*dC*dT*dG*dC*dT*dT*dG*dC*dA*dA*dG*dC*dA*dG*dC*dT*dT*dG*dA*dT)
[1]
  invasion of MCF-10A cells: stimulated invasion
[1]; listed as non-CpG-ODN
  invasion of MCF-10A cells: induced a significant invasion response
[2]
  invasion of TLR9 negative MCF-7 cells: did not, however, stimulate invasion
[2]; listed as non-CpG-ODN
  invasion of TLR9 negative MCF-7 cells: no significant effect
[3]
  cell viability (MTS), longer incubation: significantly decreased viability

## aprotinin
[4]
  effect on CpG-ODN-induced gelatinolytic band of about 50 kDa: did not disappear; also recorded: not inhibited

## CCN(CC)CCCC(C)Nc1ccnc2cc(Cl)ccc12 (stereo not drawn) [chloroquine]
MDA-MB-231 cells; chloroquine 10 μM, non-CpG-ODN 10 μM, 18 h
  effect on non-CpG-ODN-induced invasion: inhibited
MDA-MB-231 cells; chloroquine 10 μM, type C CpG-ODN 10 μM, 18 h
  effect on CpG-ODN-induced invasion: blocked; also recorded: inhibited
PC-3 cells; chloroquine 10 μM, 1000 ng/ml E. coli DNA, 20 h
  effect of chloroquine on E. coli DNA-induced invasion of PC-3 cells: inhibited
PC-3 cells; chloroquine 10 μM, CpG-ODN 5 μM, 18 h
  effect of chloroquine on CpG-ODN-induced invasion of PC-3 cells: significantly inhibited; also recorded: inhibits CpG-ODN-induced invasion

## TNF-α
NFκB reporter gene; pIRES-EGFP empty vector MDA-MB-231
  NFκβ-promoter activity in empty vector cells: significant increase in NFκβ-promoter activity
NFκB reporter gene; pIRES-EGFP-TRAF6DN MDA-MB-231
  NFκβ-promoter activity in TRAF6DN-pool: blunted

## C[S+]([O-])c1ccc(-c2nc(-c3ccncc3)c(-c3ccc(F)cc3)[nH]2)cc1 (stereo not drawn) [p38 inhibitor, SB203580]
PC-3 cells; inhibitor 10^−5 M, CpG-ODN 5 μM, 18 h
  effect of MAP-kinase inhibitors on CpG-ODN-induced invasion of PC-3 cells: Neither of these inhibitors affected CpG-ODN-induced invasion

## CNC(=O)[C@H](Cc1c[nH]c2ccccc12)NC(=O)[C@@H](CC(=O)NO)CC(C)C [GM6001]
MDA-MB-231 cells; inhibitor 2 μM, type C CpG-ODN 10 μM
  effect on type C CpG-induced invasion of MDA-MB-231 cells: inhibited CpG-ODN-induced invasion; also recorded: inhibited by the MMP inhibitor
[4]
  effect on CpG-ODN-induced gelatinolytic band of about 50 kDa: abolished; also recorded: did disappear
